{"source": "ChEMBL document CHEMBL4602659", "about": "“β,β-Dimethylacrylshikonin Induces Apoptosis in Melanoma Cell Lines by NOXA Upregulation” (J Nat Prod, 2020)", "key": {"WM793 [1]": {"test_system": "WM793", "assay": "Induction of apoptosis in human WM793 cells assessed as necrotic cells at IC50 concentration after 24 hrs by Annexin V/SYTOX Green based flow cytometric analysis (reference value: 0.17%)", "type": "functional"}, "MUGMel1 [2]": {"test_system": "MUGMel1", "assay": "Induction of apoptosis in human MUGMel1 cells assessed as necrotic cells at IC50 concentration after 24 hrs by Annexin V/SYTOX Green based flow cytometric analysis (reference value: 0.42%)", "type": "functional"}, "WM164 [3]": {"test_system": "WM164", "assay": "Induction of apoptosis in human WM164 cells assessed as up regulation of NOXA protein expression at IC50 concentration after 24 hrs by Western blot analysis", "type": "functional, cell-based"}, "SBcl2 [4]": {"test_system": "SBcl2", "assay": "Induction of apoptosis in human SBcl2 cells assessed as up regulation of NOXA protein expression at IC50 concentration after 24 hrs by Western blot analysis", "type": "functional, cell-based"}, "MUGMel2 [5]": {"test_system": "MUGMel2", "assay": "Induction of apoptosis in human MUGMel2 cells assessed as effect on BAD mRNA expression at IC50 concentration after 6 to 24 hrs by RT-qPCR analysis", "type": "functional, cell-based"}, "MUGMel2 [6]": {"test_system": "MUGMel2", "assay": "Induction of apoptosis in human MUGMel2 cells assessed as necrotic cells at IC50 concentration after 24 hrs by Annexin V/SYTOX Green based flow cytometric analysis (reference value: 1.1%)", "type": "functional"}, "[7]": {"assay": "Toxicity in NU(NCr)-Foxn1 mouse xenografted with SBcl2 assessed as weight loss at 2 ug/g administered for three consecutive days with 1 day interval for four cycle", "settings": "in vivo"}, "MUGMel2 [8]": {"test_system": "MUGMel2", "assay": "Induction of apoptosis in human MUGMel2 cells assessed as effect on BAD protein expression at IC50 concentration after 24 hrs by Western blot analysis", "type": "functional, cell-based"}, "SBcl2 [9]": {"test_system": "SBcl2", "assay": "Induction of apoptosis in human SBcl2 cells assessed as viable cells at IC50 concentration after 24 hrs by Annexin V/SYTOX Green based flow cytometric analysis (reference value: 73.08%)", "type": "functional"}, "MUGMel1 [10]": {"test_system": "MUGMel1", "assay": "Induction of apoptosis in human MUGMel1 cells assessed as early apoptotic cells at IC50 concentration after 6 hrs by Annexin V/SYTOX Green based flow cytometric analysis (reference value: 2.55%)", "type": "functional"}, "SBcl2 [11]": {"test_system": "SBcl2", "assay": "Induction of apoptosis in human SBcl2 cells assessed as up regulation of NOXA at IC50 concentration after 6 to 24 hrs by RT-qPCR analysis", "type": "functional, cell-based"}, "SBcl2 [12]": {"test_system": "SBcl2", "assay": "Induction of apoptosis in human SBcl2 cells assessed as up regulation of PMAIP1 at IC50 concentration after 24 hrs by mRNA sequencing method relative to control", "type": "functional"}, "MRC5 [13]": {"test_system": "MRC5", "assay": "Cytotoxicity against human MRC5 cells assessed as reduction in cell viability after 72 hrs by EZ4U reagent based spectrophotometric method", "type": "functional"}, "MUGMel1 [14]": {"test_system": "MUGMel1", "assay": "Induction of apoptosis in human MUGMel1 cells assessed as effect on BAD mRNA expression at IC50 concentration after 6 to 24 hrs by RT-qPCR analysis", "type": "functional, cell-based"}, "WM164 [15]": {"test_system": "WM164", "assay": "Induction of apoptosis in human WM164 cells assessed as increase in caspase -3 activity at IC50 concentration after 24 hrs by Alexa Fluor 647 antibody based flow cytometric analysis", "type": "functional, cell-based"}, "SBcl2 [16]": {"test_system": "SBcl2", "assay": "Induction of apoptosis in human SBcl2 cells assessed as up regulation of BCL2 at IC50 concentration after 6 to 24 hrs by RT-qPCR analysis", "type": "functional, cell-based"}, "MRC5 [17]": {"test_system": "MRC5", "assay": "Cytotoxicity against human MRC5 cells assessed as reduction in cell viability after 24 hrs by EZ4U reagent based spectrophotometric method", "type": "functional", "settings": "MRC5, 24 h"}, "SBcl2 [18]": {"test_system": "SBcl2", "assay": "Cytotoxicity against human SBcl2 cells harboring NRAS Q61I mutant assessed as reduction in cell viability after 48 hrs by EZ4U reagent based spectrophotometric method", "type": "functional", "settings": "SBcl2, 48 h"}, "[19]": {"assay": "Toxicity in NU(NCr)-Foxn1 mouse xenografted with WM164 assessed as weight loss at 1 to 4 ug/g administered for three consecutive days with 1 day interval for four cycle", "settings": "in vivo"}, "MUGMel1 [20]": {"test_system": "MUGMel1", "assay": "Induction of apoptosis in human MUGMel1 cells assessed as late apoptotic cells at IC50 concentration after 6 hrs by Annexin V/SYTOX Green based flow cytometric analysis (reference value: 1.04%)", "type": "functional"}, "WM164 [21]": {"test_system": "WM164", "assay": "Induction of apoptosis in human WM164 cells assessed as effect on BAX protein expression at IC50 concentration after 24 hrs by Western blot analysis", "type": "functional, cell-based"}, "MUGMel1 [22]": {"test_system": "MUGMel1", "assay": "Induction of apoptosis in human MUGMel1 cells assessed as viable cells at IC50 concentration after 6 hrs by Annexin V/SYTOX Green based flow cytometric analysis (reference value: 96.01%)", "type": "functional"}, "MUGMel1 [23]": {"test_system": "MUGMel1", "assay": "Induction of apoptosis in human MUGMel1 cells assessed as up regulation of NOXA at IC50 concentration after 6 to 24 hrs by RT-qPCR analysis relative to control", "type": "functional"}, "MUGMel2 [24]": {"test_system": "MUGMel2", "assay": "Induction of apoptosis in human MUGMel2 cells assessed as effect on BAX mRNA expression at IC50 concentration after 6 to 24 hrs by RT-qPCR analysis", "type": "functional, cell-based"}, "SBcl2 [25]": {"test_system": "SBcl2", "assay": "Induction of apoptosis in human SBcl2 cells treated with scrambled si-RNA assessed as up regulation of NOXA protein expression at IC50 concentration after 24 hrs by Western blot analysis", "type": "functional, cell-based"}, "WM164 [26]": {"test_system": "WM164", "assay": "Induction of apoptosis in human WM164 cells assessed as late apoptotic cells at IC50 concentration after 24 hrs by Annexin V/SYTOX Green based flow cytometric analysis (reference value: 1.81%)", "type": "functional"}, "MUGMel2 [27]": {"test_system": "MUGMel2", "assay": "Induction of apoptosis in human MUGMel2 cells assessed as effect on BAX protein expression at IC50 concentration after 24 hrs by Western blot analysis", "type": "functional, cell-based"}, "WM793 [28]": {"test_system": "WM793", "assay": "Cytotoxicity against human WM793 cells harboring BRAF V600E mutant assessed as reduction in cell viability after 72 hrs by EZ4U reagent based spectrophotometric method", "type": "functional", "settings": "WM793, 72 h"}, "MUGMel1 [29]": {"test_system": "MUGMel1", "assay": "Induction of cell cycle arrest in human MUGMel1 cells assessed as increase in S phase at IC50 concentration after 24 to 48 hrs by propidium iodide staining based flow cytometric analysis", "type": "functional"}, "SBcl2 [30]": {"test_system": "SBcl2", "assay": "Antitumour activity against human SBcl2 cells xenografted in NU(NCr)-Foxn1 mouse assessed as increase in necrotic cells at 2 ug/g administered for three consecutive days with 1 day interval for four cycle by hematoxylin and eosin staining based microscopic analysis", "type": "functional"}, "SBcl2 [31]": {"test_system": "SBcl2", "assay": "Induction of apoptosis in human SBcl2 cells assessed as early apoptotic cells at IC50 concentration after 6 hrs by Annexin V/SYTOX Green based flow cytometric analysis (reference value: 4.26%)", "type": "functional"}, "MRC5 [32]": {"test_system": "MRC5", "assay": "Cytotoxicity against human MRC5 cells assessed as reduction in cell viability after 48 hrs by EZ4U reagent based spectrophotometric method", "type": "functional"}, "SBcl2 [33]": {"test_system": "SBcl2", "assay": "Antitumour activity against human SBcl2 cells xenografted in NU(NCr)-Foxn1 mouse assessed as increase in fibrosis at 2 ug/g administered for three consecutive days with 1 day interval for four cycle by hematoxylin and eosin staining based microscopic analysis", "type": "functional, cell-based"}, "WM793 [34]": {"test_system": "WM793", "assay": "Induction of apoptosis in human WM793 cells assessed as effect on PUMA protein expression at IC50 concentration after 24 hrs by Western blot analysis", "type": "functional, cell-based"}, "SBcl2 [35]": {"test_system": "SBcl2", "assay": "Induction of apoptosis in human SBcl2 cells assessed as effect on BAX protein expression at IC50 concentration after 24 hrs by Western blot analysis", "type": "functional, cell-based"}, "MUGMel1 [36]": {"test_system": "MUGMel1", "assay": "Cytotoxicity against human MUGMel1 cells assessed as reduction in cell viability after 48 hrs by EZ4U reagent based spectrophotometric method", "type": "functional", "settings": "MUGMel1, 48 h"}}, "note": "Active and inactive are the calls of the source. The calls are words filed in the database; no cut-off is given here."}
{"smiles": "CC(C)=CC[C@@H](OC(=O)C=C(C)C)C1=CC(=O)c2c(O)ccc(O)c2C1=O", "note": "[DIMETHYLACRYLSHIKONIN]", "values": [{"measurement": "Activity", "setting": "WM793 [1]", "result": 0.22, "unit": "%"}, {"measurement": "Activity", "setting": "MUGMel1 [2]", "result": 0.15, "unit": "%"}, {"measurement": "Activity", "setting": "WM164 [3]", "result": "Active"}, {"measurement": "Activity", "setting": "SBcl2 [4]", "result": "Active"}, {"measurement": "Activity", "setting": "MUGMel2 [5]", "result": "inactive"}, {"measurement": "Activity", "setting": "MUGMel2 [6]", "result": 0.16, "unit": "%"}, {"measurement": "Activity", "setting": "[7]", "result": "Non-Toxic"}, {"measurement": "Activity", "setting": "MUGMel2 [8]", "result": "inactive"}, {"measurement": "Activity", "setting": "SBcl2 [9]", "result": 8.43, "unit": "%"}, {"measurement": "Activity", "setting": "MUGMel1 [10]", "result": 3.51, "unit": "%"}, {"measurement": "Activity", "setting": "SBcl2 [11]", "result": "Active"}, {"measurement": "fold change (FC)", "setting": "SBcl2 [12]", "result": 1.37}, {"measurement": "IC50", "setting": "MRC5 [13]", "result": "Not Active"}, {"measurement": "Activity", "setting": "MUGMel1 [14]", "result": "inactive"}, {"measurement": "Activity", "setting": "WM164 [15]", "result": "Active"}, {"measurement": "Activity", "setting": "SBcl2 [16]", "result": "Active"}, {"measurement": "IC50", "setting": "MRC5 [17]", "result": 9.5, "unit": "µM"}, {"measurement": "IC50", "setting": "SBcl2 [18]", "result": 1.1, "unit": "µM"}, {"measurement": "Activity", "setting": "[19]", "result": "Non-Toxic"}, {"measurement": "Activity", "setting": "MUGMel1 [20]", "result": 2.36, "unit": "%"}, {"measurement": "Activity", "setting": "WM164 [21]", "result": "inactive"}, {"measurement": "Activity", "setting": "MUGMel1 [22]", "result": 94.02, "unit": "%"}, {"measurement": "fold change (FC)", "setting": "MUGMel1 [23]", "result": 2.4}, {"measurement": "Activity", "setting": "MUGMel2 [24]", "result": "inactive"}, {"measurement": "Activity", "setting": "SBcl2 [25]", "result": "Active"}, {"measurement": "Activity", "setting": "WM164 [26]", "result": 11.6, "unit": "%"}, {"measurement": "Activity", "setting": "MUGMel2 [27]", "result": "inactive"}, {"measurement": "IC50", "setting": "WM793 [28]", "result": 0.7, "unit": "µM"}, {"measurement": "Activity", "setting": "MUGMel1 [29]", "result": "Active"}, {"measurement": "Activity", "setting": "SBcl2 [30]", "result": 50, "unit": "%"}, {"measurement": "Activity", "setting": "SBcl2 [31]", "result": 8.44, "unit": "%"}, {"measurement": "IC50", "setting": "MRC5 [32]", "result": "Not Active"}, {"measurement": "Activity", "setting": "SBcl2 [33]", "result": "Active"}, {"measurement": "Activity", "setting": "WM793 [34]", "result": "inactive"}, {"measurement": "Activity", "setting": "SBcl2 [35]", "result": "inactive"}, {"measurement": "IC50", "setting": "MUGMel1 [36]", "result": 1.1, "unit": "µM"}]}
